Source: paper PMC10129394, “PK1 from Drosophila obscurin is an inactive pseudokinase with scaffolding properties” (Open Biology, 2023)

Legend:
dmObsc-PK1 [1] = target: T1, dmObsc-PK1 (Drosophila melanogaster, UniProt A8DYP0); test: X-ray crystallography, […] Å; details: co-crystallized with 3 mM ATP and 1 mM MgCl2, ADP found in density; no cation observed; pH 9.5; ATP-binding pocket
T1 construct: gene Obsc; pseudokinase domain PK1 plus 40 C-terminal residues (3186-3480); N-terminal His6-3C tag (pOPINF), cleaved with 3C protease; E. coli Rosetta
T1 sequence (A8DYP0 3186-3480): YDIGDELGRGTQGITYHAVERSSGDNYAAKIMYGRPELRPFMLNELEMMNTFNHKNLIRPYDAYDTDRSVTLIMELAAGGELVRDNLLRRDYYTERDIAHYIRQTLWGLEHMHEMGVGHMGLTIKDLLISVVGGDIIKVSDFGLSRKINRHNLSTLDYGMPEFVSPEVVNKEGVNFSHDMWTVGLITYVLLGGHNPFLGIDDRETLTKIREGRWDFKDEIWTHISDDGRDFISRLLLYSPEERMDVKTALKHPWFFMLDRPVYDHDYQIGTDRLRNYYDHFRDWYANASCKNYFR

dmObsc-PK1 [2] = target: T1, dmObsc-PK1; test: isothermal titration calorimetry; type: binding

Row | Kd (dmObsc-PK1 [2]) | Structure (SMILES) | X-ray crystallography, 1.90 Å (dmObsc-PK1 [1])
1 |  | Nc1ncnc2c1ncn2[C@@H]1O[C@H](COP(=O)(O)OP(=O)(O)O)[C@@H](O)[C@H]1O [ADP] | electron density maps revealed ADP bound to the kinase
2 | 61.8 ± 4.2 µM | Nc1ncnc2c1ncn2[C@@H]1O[C@H](COP(=O)(O)OP(=O)(O)OP(=O)(O)O)[C@@H](O)[C@H]1O [ATP] | 
